According to ChEMBL document CHEMBL1201862, “PubChem BioAssay data set” (2004):
Structures can show the parent of a compound that is named as a salt.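 A five-concentration, 48-hour dose response in 96-well plates underlies each endpoint, interpolated linearly between surrounding concentrations. Abbreviation: GI50, concentration required for 50% inhibition of growth.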 Activity calls are given as the source filed them. Cut-off read from the data, not from the text of the source: active = GI50 up to about 1.1 µM and inactive = higher.

Assays:
Assay in all cases: NCI tumour cell line growth inhibition, 48 h
BT-549 = system: BT-549
KM-20L2 = system: KM-20L2
M19-MEL = system: M19-MEL
DMS-273 = system: DMS-273
Hs-578T = system: Hs-578T
XF498 = system: XF498
DMS-114 = system: DMS-114
HOP-18 = system: HOP-18

SMILES	GI50 (BT-549)	GI50 (Hs-578T)	other results
Cc1cc2nc3c(C#N)c(-c4ccccc4)cc(Nc4cccc(C(F)(F)F)c4)n3c2cc1C	10.5 µM (inactive)		
N#Cc1ccc(C(C2C(=O)NC(=O)NC2=O)C2C(=O)NC(=O)NC2=O)cc1			GI50 (KM-20L2): > 100 µM (inactive); GI50 (M19-MEL): > 100 µM (inactive); GI50 (DMS-273): > 100 µM (inactive)
[N-]=[N+]=NC1CC(n2ccc(N)nc2=O)OC1COP(=O)(O)OP(=O)(O)OP(=O)(O)O (stereo not drawn)		> 100 µM (inactive)	
COC(=O)c1cc2c(cc1CC1Cc3cc4c(cc3C1)CCC4)CCC2		66.8 µM (inactive)	
C/C(=N\NC(N)=S)c1ccccn1.OB(O)c1ccccc1	8.15 µM (inactive)	> 100 µM (inactive)	
NCCc1cc(O)c(O)cc1O [OXIDOPAMINE HYDROCHLORIDE]	16.6 µM (inactive)		
CCOC(=O)c1c(SCCN2CCCC2)n(-c2ccccc2)c(=S)n(-c2ccccc2)c1=O	5.37 µM (inactive)	4.7 µM (inactive)	
Cc1c(F)c(N)c2c(=O)cc(-c3ccc(NC(=O)C(N)CCCNC(=N)N)c(F)c3)oc2c1F (stereo not drawn)	21.8 µM (inactive)	28.5 µM (inactive)	
O=C(NCCCCCCNC(=O)c1cc(-c2ccccc2)nc2ccccc12)c1cc(-c2ccccc2)nc2ccccc12	> 100 µM (inactive)	40.6 µM (inactive)	
CCCCCc1c(CCCC)c(=O)[nH]c2cc(CNCC(OC)OC)ccc12	14.8 µM (inactive)	18.5 µM (inactive)	
COC(=O)c1c(C)cccc1C1CN=NC12Cc1ccc(C)c(C)c1C2=O (stereo not drawn)		37.7 µM (inactive)	
O=C1c2ccccc2C(=O)c2c1ccc1c2OCO1	> 100 µM (inactive)	> 100 µM (inactive)	
Nn1c(CCCCCCCCc2nnc(COc3ccc(Cl)cc3)n2N)nnc1COc1ccc(Cl)cc1	> 100 µM (inactive)		
Nc1ccc2nc(N)n[n+]([O-])c2c1	> 100 µM (inactive)	> 100 µM (inactive)	
O=c1n(-c2ccc(Cl)c(Cl)c2)c(=O)n(-c2ccc(Cl)c(Cl)c2)c(=O)n1-c1ccc(Cl)c(Cl)c1	2.88 µM (inactive)	2.96 µM (inactive)	
c1ccc(Nc2nnc(Cn3ccc4ccccc43)s2)cc1	> 100 µM (inactive)	65.6 µM (inactive)	
Cc1nc2ccc([N+](=O)[O-])cc2c(=O)n1C(=S)Nc1cccc(Cl)c1		21.5 µM (inactive)	
c1ccc2c(c1)nc1n2CCCn2ccnc2-1	> 100 µM (inactive)	> 100 µM (inactive)	
Cc1cccc(/N=N/C(=N\NC(=O)c2cc(Cl)ccc2O)c2ccc(N(CCC#N)CCC#N)cc2C)c1	24.2 µM (inactive)	77.6 µM (inactive)	
CCOC(=O)N1CCN(c2ccc3ccc(N)nc3n2)CC1	> 100 µM (inactive)	> 100 µM (inactive)	
Cc1ccc(Cl)c2c(=O)c3ccc(N)cc3sc12	29.4 µM (inactive)	10.4 µM (inactive)	
CCNc1nc(N)c(C(=O)c2cccs2)s1	20.8 µM (inactive)	38.1 µM (inactive)	
COc1ccc(-c2c3c(n(C4OC(CO)C(O)C(O)C4O)c(=S)c2C#N)CC(C)(C)CC3=O)cc1 (stereo not drawn)	> 100 µM (inactive)	> 100 µM (inactive)	
O=C1CCCC2=C1CC1=C(CCCC1=O)N2c1cccc2ccccc12	26.8 µM (inactive)	33.8 µM (inactive)	
O=C(OCC1CCCN2CCCCC12)c1ccncc1 (stereo not drawn)	> 100 µM (inactive)	> 100 µM (inactive)	
CCOC(=O)C1C/C(C)=C(/C)SCCCS1 (stereo not drawn)		> 100 µM (inactive)	
Cc1ccc(Nc2cn(COCc3ccccc3)c(=O)[nH]c2=O)cc1	11.7 µM (inactive)	24.9 µM (inactive)	
O=C1C(Cl)=C(N(C(=O)c2ccccc2)C(=O)c2ccccc2)C(=O)c2ccccc21	9.04 µM (inactive)	4.8 µM (inactive)	

SMILES	GI50 (BT-549)	GI50 (Hs-578T)	other results
O=S(=O)(c1ccc(/N=N/O)nc1)c1ccc2ccccc2c1	> 100 µM (inactive)	> 100 µM (inactive)	
Cc1cnc2sn(-c3ccc([N+](=O)[O-])cc3)c(=O)c2c1	43.2 µM (inactive)	53.5 µM (inactive)	
C=C1C(=O)O[C@@H]2C[C@]3(C)CC[C@]4(C)[C@H](CC[C@@H]5[C@@]6(C)CCC(=O)C(C)(C)[C@@H]6CC[C@]54C)[C@H]3[C@H]12 [OCHRACEOLIDE A]	16.1 µM (inactive)	31.6 µM (inactive)	
CCOC(=O)C1C(=O)C=C(c2cc(C)ccc2O)CC1c1cccc(Br)c1 (stereo not drawn)	24.9 µM (inactive)	14.8 µM (inactive)	
CSc1c(C#N)c(=O)[nH]c2[nH]nc(C)c12	> 100 µM (inactive)	> 100 µM (inactive)	
O=C1c2ccccc2OP(=O)(OCC(F)(F)F)OC1(C(F)(F)F)C(F)(F)F (stereo not drawn)			GI50 (KM-20L2): > 100 µM (inactive); GI50 (XF498): > 100 µM (inactive); GI50 (M19-MEL): > 100 µM (inactive); GI50 (DMS-114): > 100 µM (inactive); GI50 (DMS-273): > 100 µM (inactive)
CC(=O)[C@@H]1C/C(=C\OCc2ccccc2)O[C@H]1C	> 100 µM (inactive)		
COC(=O)CCc1ccc2c(c1)CC1(C2)Cc2ccc3c(c2C1)CCC3 (stereo not drawn)		99.1 µM (inactive)	
Cc1nn(-c2ccccc2)c2nc3c(c(C)nn3-c3ccccc3)c(-c3ccccc3Br)c12	> 100 µM (inactive)		
Clc1ccc2c(c1)N(CCCN1CCCC13CCCCC3)c1ccccc1S2	14.9 µM (inactive)	13.5 µM (inactive)	
CCCCCCCCCCCCCCCCCCNc1ccn(C2OC(COP(=O)(O)OCC3CCC(n4cnc5c(=O)[nH]cnc54)O3)C(O)C2O)c(=O)n1 (stereo not drawn)	> 100 µM (inactive)	> 100 µM (inactive)	
Cc1ccc(-c2c(C#N)c(-c3ccccc3)n(NS(=O)(=O)c3ccc(C)cc3)c(=O)c2C#N)cc1	22.9 µM (inactive)		
Cc1cccc2c(=O)cc(-c3ccccc3)[nH]c12			GI50 (KM-20L2): 4.07 µM (inactive); GI50 (XF498): 3.01 µM (inactive); GI50 (M19-MEL): 4.61 µM (inactive); GI50 (DMS-114): 3.95 µM (inactive); GI50 (DMS-273): 3.57 µM (inactive)
CN1OC(CO)CC12C1CC3CC(C1)CC2C3 (stereo not drawn)			GI50 (KM-20L2): > 100 µM (inactive); GI50 (HOP-18): > 100 µM (inactive); GI50 (M19-MEL): > 100 µM (inactive); GI50 (DMS-114): > 100 µM (inactive); GI50 (DMS-273): > 100 µM (inactive)
CC1=CC2(O)OC3(CC2=C(C)C)C(C)CCC13 (stereo not drawn)	> 100 µM (inactive)	> 100 µM (inactive)	
C/N=c1/oc2ccccc2cc1C(N)=O	> 100 µM (inactive)	16.9 µM (inactive)	
Br/C(=N\N=c1/nn[nH][nH]1)c1ccncc1	> 100 µM (inactive)	> 100 µM (inactive)	
CC(C)(C)C1=Cc2cc3cc(C(C)(C)C)[nH]c(=O)c3cc2S(=O)(=O)N1			GI50 (M19-MEL): 19.7 µM (inactive); GI50 (DMS-114): 21.4 µM (inactive)
Cc1ccc(/N=C2/SC(c3ccc(C)cc3)(c3ccc(C)cc3)c3ccccc32)cc1	> 100 µM (inactive)	> 100 µM (inactive)	
NCCNCC(O)CO (stereo not drawn)	> 100 µM (inactive)	> 100 µM (inactive)	
CCOC(=O)CSc1nc(-c2ccc(Cl)cc2)c(C#N)c(=O)[nH]1	> 100 µM (inactive)	> 100 µM (inactive)	
COc1ccc2nc(N/N=C/C(C)=N/Nc3cc(C)c4cc(OC)ccc4n3)cc(C)c2c1	74.3 µM (inactive)	31 µM (inactive)	
COC(=O)/C=C/c1ccc2c(c1)[C@H](C(=O)OC)[C@@H](c1ccc(O)cc1)O2	16.8 µM (inactive)	31.2 µM (inactive)	
O=C1NN(c2ccccc2)C(=O)C2C3c4ccccc4C(c4ccccc43)C12 (stereo not drawn)		83.2 µM (inactive)	
O=C1NC(=O)C2C(=O)NC(=O)C1C2(c1ccccc1)c1cc[nH]c1 (stereo not drawn)			GI50 (XF498): > 100 µM (inactive); GI50 (M19-MEL): > 100 µM (inactive); GI50 (DMS-114): > 100 µM (inactive); GI50 (DMS-273): > 100 µM (inactive)
Nc1nc(Cl)c2nnn(CC3CCC(CO)C3)c2n1 (stereo not drawn)		> 100 µM (inactive)	
Cc1cc(CNC(=O)OCc2ccccc2)c(C)c2c1Oc1ccccc1O2	62.8 µM (inactive)	19.7 µM (inactive)	
